Assay results reported in US6809101B2, “Compounds having anti-hepatitis C virus effect” (priority 2000, dated 2004).
Where two headings read alike, the source gives them in different places.

Experiments:
[1] = target: HCV RNA-dependent RNA polymerase (UniProt P27958); experiment: Inhibitory activity against HCV RNA-dependent RNA polymerase (Experiment Example 1); assay type: biochemical, hepatitis C virus (HCV); conditions: Experimental example 1, poly(A) template, oligo(U)12 primer, 3H-UTP substrate, enzyme reaction 25° C. for 30 min
Description: Inhibitory Activity Against HCV RNA-Dependent RNA Polymerase
(1) Preparation of Hepatitis C Virus (HCV) RNA-Dependent RNA Polymerase
It was collected several cDNA clones of HCV RNA-dependent RNA polymerase from plasma of people infected with HCV, RNA-dependent RNA polymerase was expressed by using insect cell or E. coli from these clones. RNA-dependent RNA polymerase in cell extract was purified by anion-exchange chromatography, heparin-affinity chromatography, poly U-affinity chromatography, cation-exchange chromatography, gel filtration chromatography, and the like. The preparation was done at about 4° C. under low temperature condition, as solution dissolving enzyme was used Tris buffer (pH 7.5) containing ethylenediamine tetraacetic acid (1 mM), dithiothreitol (10 mM), and glycerol (20%). The purified enzyme was kept at 4° C. or −20° C. until it was used for assay.
(2) Method of HCV RNA-Dependent RNA Polymerase Assay
(1) In polypropylene vessel was added buffer I*^1)(10.5 μL) containing Tris-HCl (100 mM, pH 7.5), magnesium chloride (25 mM), dithiothreitol (5 mM), potassium chloride (125 mM), ethylenediamine tetraacetic acid (5 mM), and then were added poly(A)*^2) aqueous solution (100 μg/mL, 10.5 μL), oligo(U)12*^3) aqueous solution (10 μg/mL, 10.5 μL), and water (8 μL), and the mixture was mixed slowly.
*1) All of water used as experimental material in enzyme reaction were carried out inactivation treatment of Rnase with diethylpyrocarbonate. The inactivation treatment with diethylpyrocarbonate was carried out as follows, 1) diethylpyrocarbonate (0.1 g) was dissolved in de-ionized water (100 mL), 2) the solution was stood at 37° C. for 24 h, 3) kept in autoclave at 120° C. for 30 min.
*2) Poly(A) is single strand polynucleotide composed with only adenylic acid. It was used as template.
*3) Oligo(U)12 is single strand oligonucleotide composed with only 12 element of uridylic acid. It was used as primer.
(2) Next, to the mixture was added a solution (10.5 μL) of RNA-dependent RNA polymerase, and preincubation was carried out at 25° C. for 60 min.
(3) A solution (50 μL) preincubated described in (2) was added into 96-wells microtiter plate divided test compound (5.26 μL per well) dissolved with dimethylsulfoxide or water.
*4) UTP is uridine triphosphate. It was used as substrate.
(5) When the enzyme reaction was passed for 30 min, to the mixture was added a aqueous solution (50 mM, 50 μL) of ethylenediamine tetraacetic acid disodium and the enzyme reaction was stopped.
(6) Next, after all volume of sample of (5) was transferred on filter introduced diethylaminoethyl group (henceforth shortening as DEAE-filter mat) by using cell harvester, was carried the washing twice with sodium phosphate buffer (0.25 M, pH 7.0) for 10 sec and the washing once with deionized water for 10 sec.
(7) After the washing, DEAE-filter mat was dried at 95° C. for 15 min and sealed together with liquid scintillator (10 mL) into sample bag.
(8) Radioactivity was measured by using scintillation counter.
(9) The percentage of inhibition was calculated by replacing the measured value of radioactivity (unit; ccpm) into the following expression.
The percentage of inhibition=100−(the measured value in presence of test compound−the measured value in absence of enzyme)÷(the measured value in absence of test compound−the measured value in absence of enzyme)×100.
(10) The concentration of test compound inhibiting 50% (IC50) was obtained from the percentage of inhibition calculated in (9) and the used concentration of test compound inhibiting.
In case of the percentage of inhibition is A % when α μg/mL of the compound is used and the percentage of inhibition is B % when β μg/ml of the compound is used, IC50 was obtained from the following expression. Provided that it is theorized as A≧50>B. […]

[2] = target: T1, RNA-dependent RNA polymerase (RdRp) of bovine virus diarrhea virus (BVDV) (Bovine viral diarrhea virus, UniProt P19711); experiment: Inhibitory activity against BVDV RNA-dependent RNA polymerase (Experiment Example 2); assay type: biochemical; conditions: Experimental example 2; same way as experiment example 1
T1 construct: RNA-dependent RNA polymerase (RdRp) of bovine virus diarrhea virus (BVDV)
T1 sequence (P19711 3270-3988): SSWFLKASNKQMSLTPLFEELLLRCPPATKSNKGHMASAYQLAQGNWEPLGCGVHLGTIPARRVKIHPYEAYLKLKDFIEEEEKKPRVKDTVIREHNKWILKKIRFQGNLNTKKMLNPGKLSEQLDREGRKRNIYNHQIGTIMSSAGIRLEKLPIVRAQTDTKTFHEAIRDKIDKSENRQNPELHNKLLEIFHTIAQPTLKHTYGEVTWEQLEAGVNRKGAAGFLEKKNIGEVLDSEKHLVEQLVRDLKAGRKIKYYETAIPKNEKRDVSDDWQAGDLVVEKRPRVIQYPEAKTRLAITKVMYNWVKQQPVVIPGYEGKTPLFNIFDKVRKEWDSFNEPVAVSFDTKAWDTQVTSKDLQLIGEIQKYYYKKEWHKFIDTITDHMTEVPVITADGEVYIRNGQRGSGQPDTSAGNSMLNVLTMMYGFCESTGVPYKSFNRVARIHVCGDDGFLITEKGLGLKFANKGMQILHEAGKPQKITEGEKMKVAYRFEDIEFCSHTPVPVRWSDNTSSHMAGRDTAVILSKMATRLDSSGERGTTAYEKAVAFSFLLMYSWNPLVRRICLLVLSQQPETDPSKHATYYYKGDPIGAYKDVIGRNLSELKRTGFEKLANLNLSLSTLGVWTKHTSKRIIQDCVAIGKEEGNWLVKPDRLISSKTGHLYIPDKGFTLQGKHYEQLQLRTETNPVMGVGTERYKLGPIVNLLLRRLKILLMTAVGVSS
Description: Inhibitory Activity Against BVDV RNA-Dependent RNA Polymerase
Inhibitory activity against RNA-dependent RNA polymerase (RdRp) of bovine virus diarrhea virus (BVDV) was experimented too in the same way in experiment example 1.

[3] = read-out: IC50 for HCV RdRp (converted)

Structure (SMILES) | IC50 [1, 3] [µM] | IC50 [2] [µM] | melting point | IC50 ([1]; read-out: IC50 for HCV RdRp) [µM]
O=C1NC(=S)SC1=C(O)c1ccon1 [Compound I-29, 5-[1-(Isoxazol-3-yl)1-hydroxy]methylene-2-thioxothiazolidin-4-one] | 7.89 | 118 | 210 to 215 °C (dec.) | 
O=C1NC(=S)SC1=C(O)c1nn[nH]n1 [Compound I-32, 5-[1-Hydroxy-1-(2H-tetrazol-5-yl)]methylene-2-thioxothiazolidin-4-one] | 14 | 161 | 188 to 193 °C (dec.) | 
O=C1NC(=S)SC1=C(O)c1ncccn1 [Compound I-35, 5-[1-Hydroxy-1-(pyrimidin-2-yl)]methylene-2-thioxothiazolidin-4-one] | 5.85 | 142 | > 250 °C (dec.) | 
Cc1cnc(/C(O)=C2\SC(=S)NC2=O)o1 [Compound I-1, 5-[1-Hydroxy-1-(5-methyloxazol-2-yl)]methylene-2-thioxothiazolidin-4-one] |  | 10.3 | 243 to 245 °C (dec.) | 1.03
O=C1NC(=S)SC1=C(O)c1ccno1 [Compound I-30, 5-[1-(Isoxazol-5-yl)1-hydroxy]methylene-2-thioxothiazolidin-4-one] | 29.8 | 140 | 195 to 202 °C (dec.) | 
O=C1NC(=S)S/C1=C(/O)c1ccco1 [Compound I-2, 5-[1-(Furan-2-yl)-1-hydroxy]methylene-2-thioxothiazolidin-4-one] | 3.96 | 79.2 | 230 to 235 °C (dec.) | 
Cc1ccc(C(O)=C2SC(=S)NC2=O)o1 [Compound I-22, 5-[1-Hydroxy-1-(5-methylfuran-2-yl)]methylene-2-thioxothiazolidin-4-one] | 20.3 | 153 | 195 to 198 °C (dec.) | 
O=C1NC(=S)SC1=C(O)c1ccccn1 [Compound I-37, 5-[1-Hydroxy-1-(pyridin-2-yl)]methylene-2-thioxothiazolidin-4-one] | 12.6 | 151 | > 250 °C (dec.) | 
Cc1nnc(C(O)=C2SC(=S)NC2=O)o1 [Compound I-40, 5-[1-Hydroxy-1-(5-methyl-1,3,4-oxadiazol-2-yl)]methylene-2-thioxothiazolidin-4-one] | 8.22 | 21.8 | 230 to 237 °C (dec.) | 
Cc1cnoc1C(O)=C1SC(=S)NC1=O [Compound I-27, 5-[1-Hydroxy-1-(4-methylisoxazol-5-yl)]methylene-2-thioxothiazolidin-4-one] | 6.6 | 74.3 | 230 to 234 °C (dec.) | 
O=C1NC(=S)SC1=C(O)c1cnccn1 [Compound I-36, 5-[1-Hydroxy-1-(pyrazin-2-yl)]methylene-2-thioxothiazolidin-4-one] | 31.8 | 159 | > 250 °C (dec.) | 
O=C1NC(=S)SC1=C(O)c1nc[nH]n1 [Compound I-34, 5-[1-Hydroxy-1-(1H-1,2,4-triazol-3-yl)]methylene-2-thioxothiazolidin-4-one] | 4.03 | 61.3 | 285 to 290 °C (dec.) | 
